For six compounds, IC50 results are on record in patent US6262053A, “Melamine derivatives as potent anti-cancer agents” (Parker Hughes Institute, priority 1999, dated 2001).

A word on the IC50: it is the concentration that gives 50% inhibition.

Holding throughout (type): cell-based
The subject of one assay is NALM-6 leukemia cells. Nature of the assay: MTT cytotoxicity assay, NALM-6 leukemia cells. To be noted: Homo sapiens, 24-36 hours at 37° C. Here is the method: (§1) Cytotoxicity of various compounds against tumor cells was performed using the MTT (3-[4,5-dimethylthiazol-2-yl]-2,5-diphenyl tetrazolium bromide) assay (Boehringer Mannheim Corp., Indianapolis, Ind.). Unless otherwise specified, all cell lines were obtained from the American Type Culture Collection (ATCC). Briefly, exponentially growing cells were seeded into a 96-well plate at a density of 2.5×10^4 cells/well and incubated for 36 hours at 37° C. prior to drug exposure. On the day of treatment, culture medium was carefully aspirated from the wells and replaced with fresh medium containing WHI-P239 at concentrations ranging from 0.1 to 250 μM. Triplicate wells were used for each treatment.
(§2) Human leukemic cell lines (NALM-6, MOLT-3), human breast tumor cells (BT20), prostate cancer cells (PC3), and glioblastoma cells (U373) were obtained from the American Type Culture Collection and maintained as a continuous cell line in Dulbecco's modified Eagles's medium supplemented with 10% fetal bovine serum and antibiotics.
(§3) The cells were incubated with the various compounds for 24-36 hours at 37° C. in a humidified 5% CO2 atmosphere. To each well, 10 μl of MTT (0.5 mg/ml final concentration) was added and the plates were incubated at 37° C. for 4 hours to allow MTT to form formazan crystals by reacting with metabolically active cells. The formazan crystals were solubilized overnight at 37° C. in a solution containing 10% SDS in 0.01 M HCl. The absorbence of each well was measured in a microplate reader (Labsystems) at 540 nm and a reference wavelength of […]. To translate the OD540 values into the number of live cells in each well, the OD540 values were compared to those on standard OD540 -versus-cell number curves generated for each cell line. The percent survival was calculated using the formula shown below. [formula]

The test system of assay [1] is BT-20 breast cancer cells. The assay is described as follows: MTT cytotoxicity assay, BT-20 breast cancer cells. To be noted: Homo sapiens, 24-36 hours at 37° C. Here is the method:
as §1, §2, §3
For orientation: Formazan colour is commonly taken as a measure of viable cells.

Assay [2] has as its system PC-3 prostate cancer cells. Nature of the assay: MTT cytotoxicity assay, PC-3 prostate cancer cells. As to conditions: 24-36 hours at 37° C. Here is the method: as §1, §2, §3
A further assay has as its system U373 glioblastoma cells. The assay is described as follows: MTT cytotoxicity assay, U373 glioblastoma (brain tumor) cells. To be noted: Homo sapiens, U373 MG, 24-36 hours at 37° C. The procedure:
as §1, §2, §3

Like-named read-outs stand apart in the source and are kept apart here. A value given as a limit tells only on which side of the number the result lay.

Consider `Oc1c(Cl)cc(Nc2nc(Nc3cc(Cl)c(O)c(Cl)c3)nc(Nc3cc(Cl)c(O)c(Cl)c3)n2)cc1Cl` [WHI-P239, 2,4,6-Tri(3',5'-dichloro-4'-hydroxylphenyl)-amino-1,3,5-triazine], for which the IC50 in the assay on NALM-6 leukemia cells (read-out: IC50 NALM-6 Leukemia) came to 9.8 µM; in assay [1], 13.2 µM; in assay [2], 31.5 µM; in the assay with U373 glioblastoma cells, 155 µM.

Consider `Oc1c(Br)cc(Nc2nc(Nc3cc(Br)c(O)c(Br)c3)nc(Nc3cc(Br)c(O)c(Br)c3)n2)cc1Br` [WHI-P200, 2,4,6-Tri(3',5'-dibromo-4'-hydroxylphenyl)-amino-1,3,5-triazine], for which the 50% inhibitory concentration (IC50) is 10.1 µM in the assay with NALM-6 leukemia cells (read-out: IC50 NALM-6 Leukemia), 27.1 µM in assay [1], 64.5 µM in assay [2] and greater than 250 µM with U373 glioblastoma cells.

Regarding `Oc1ccccc1Nc1nc(Nc2ccccc2O)nc(Nc2ccccc2O)n1` [WHI-P205, 2,4,6-Tri(2'-hydroxylphenyl)-amino-1,3,5-triazine], the IC50 in the assay on NALM-6 leukemia cells (read-out: IC50 NALM-6 Leukemia) is 21.5 µM; in assay [1], 108 µM; in assay [2], 102 µM; with U373 glioblastoma cells, 224 µM.

For the compound `Brc1cccc(Nc2nc(Nc3cccc(Br)c3)nc(Nc3cccc(Br)c3)n2)c1` [WHI-P206, 2,4,6-Tri(3'-bromophenyl)-amino-1,3,5-triazine], the IC50 (in the assay on NALM-6 leukemia cells (read-out: IC50 NALM-6 Leukemia); in assay [1]; in assay [2]; with U373 glioblastoma cells) was greater than 250 µM each time.

For `Oc1ccc(Nc2nc(Nc3ccc(O)cc3)nc(Nc3ccc(O)cc3)n2)cc1` [WHI-P199, 2,4,6-Tri(4'-hydroxylphenyl)-amino-1,3,5-triazine], the IC50 in the assay with NALM-6 leukemia cells (read-out: IC50 NALM-6 Leukemia) is greater than 250 µM; in assay [1], 240 µM; in assay [2], 221 µM; with U373 glioblastoma cells it was greater than 250 µM.

`Oc1cccc(Nc2nc(Nc3cccc(O)c3)nc(Nc3cccc(O)c3)n2)c1` [WHI-P233, 2,4,6-Tri(3'-hydroxylphenyl)-amino-1,3,5-triazine]: the IC50 with NALM-6 leukemia cells (read-out: IC50 NALM-6 Leukemia) worked out at 5.1 µM; with NALM-6 leukemia cells (leukemia cells, read-out: IC50 antileukemic potency (unit printed EM)) it was 5.1 µM; in assay [1], 66.1 µM; in assay [2], 45.1 µM; in the assay on U373 glioblastoma cells, 104 µM.
